Reference: patent US20220380347A1, “INHIBITORS OF CYSTEINE PROTEASES AND METHODS OF USE THEREOF” (Pardes Biosciences, Inc., priority 2020, published 2022)
Like-named read-outs stand apart in the source and are kept apart here.

Tests used:
[1] = biological target: COVID-19 (nCoV-2019, SARS-CoV2) Mpro (Severe acute respiratory syndrome coronavirus 2, UniProt P0DTD1); experiment: COVID-19 (nCoV-2019, SARS-CoV2) Mpro enzymatic assay; format: biochemical; settings: 25 nM Mpro, 25 μM substrate; read-out: COVID-19 Mpro IC50
HCov OC43 = experiment: HCoV OC43 cytopathic effect (CPE) assay, CellTiter Glo; format: cell-based, human coronavirus (HCov) OC43
229E Mpro = 229E Mpro (Human coronavirus 229E, UniProt P0C6X1); experiment: 229E Mpro enzymatic assay (standard methods, SARS-CoV2 Mpro assay given as exemplary); format: biochemical, human coronavirus (HCov) 229E
Procedure, shortened: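 IC50 for 229E Mpro by standard methods; exemplary SARS-CoV-2 protocol used C-His6-tagged Mpro from E. coli, 25 nM enzyme, 25 μM substrate (Km 13.5 μM), in Tris-HCl pH 7.3, NaCl, EDTA, TCEP, 0.1% BSA. Inhibition normalised to no-compound and full-effect controls; four-parameter fit.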

[2] = read-out: OC43 IC50 (uM) MEDIAN, median
[3] = Betacoronavirus 1, OC43, read-out: OC43 IC50 (uM) MEDIAN, median

Sequence of 229E Mpro (P0C6X1 2966-3267): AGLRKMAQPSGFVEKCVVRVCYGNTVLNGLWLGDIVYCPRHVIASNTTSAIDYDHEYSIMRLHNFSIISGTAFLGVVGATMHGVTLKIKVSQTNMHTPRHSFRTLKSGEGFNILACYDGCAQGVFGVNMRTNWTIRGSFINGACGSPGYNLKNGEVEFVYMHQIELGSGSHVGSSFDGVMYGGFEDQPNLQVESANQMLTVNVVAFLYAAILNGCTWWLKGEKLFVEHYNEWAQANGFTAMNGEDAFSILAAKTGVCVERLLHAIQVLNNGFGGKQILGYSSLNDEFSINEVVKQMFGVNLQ

| Structure (SMILES) | IC50 [1] | IC50 (HCov OC43; [2]) | IC50 (HCov OC43; [3]) | EC50 (229E Mpro; 229E Mpro EC50) | also measured |
| --- | --- | --- | --- | --- | --- |
| CC(C(=O)NC1CCC(F)(F)CC1)(c1cccnc1)N(C(=O)[C@H]1C[C@@](C)(O)CN1C#N)c1ccc(S(F)(F)(F)(F)F)cc1 (single isomer, unassigned) [Compound 1077 Isomer 2] | < 2000 nM | < 2 µM | – | – | EC50 (229E Mpro; read-out: 229E Mpro EC50): < 2000 nM |
| N#CN1C[C@H]2C[C@H]2[C@@H]1C(=O)N(c1ccc(S(F)(F)(F)(F)F)cc1)C(C(=O)NC1CCC(F)(F)CC1)c1cncc(F)c1 (single isomer, unassigned) [Compound 1095b Isomer 1] | < 2000 nM | – | < 2 µM | < 2000 nM | – |
| N#CN1C[C@H](F)C[C@@H]1C(=O)N(c1ccc(S(F)(F)(F)(F)F)cc1)C(C(=O)NC1CCC(F)(F)CC1)c1cncc(F)c1 (single isomer, unassigned) [Compound 1098 Isomer 1] | 2000 to 10000 nM | – | 2 to 10 µM | < 2000 nM | – |
| N#CN1C[C@H](F)C[C@@H]1C(=O)N(c1ccc(S(F)(F)(F)(F)F)cc1)C(C(=O)NC1CCC(F)(F)CC1)c1cncc(F)c1 (single isomer, unassigned) [Compound 1098 Isomer 2] | < 2000 nM | < 2 µM | – | – | EC50 (229E Mpro; read-out: 229E Mpro EC50): < 2000 nM |
| N#CN1C[C@@H](F)C[C@@H]1C(=O)N(c1ccc(S(F)(F)(F)(F)F)cc1)C(C(=O)NC1CCC(F)(F)CC1)c1cncc(F)c1 (single isomer, unassigned) [Compound 1099 Isomer 1] | < 2000 nM | – | < 2 µM | < 2000 nM | – |
| N#CN1C[C@@H](F)C[C@@H]1C(=O)N(c1ccc(S(F)(F)(F)(F)F)cc1)C(C(=O)NC1CCC(F)(F)CC1)c1cncc(F)c1 (single isomer, unassigned) [Compound 1099 Isomer 2] | < 2000 nM | 2 to 10 µM | – | – | EC50 (229E Mpro; read-out: 229E Mpro EC50): < 2000 nM |
| CO[C@@H]1C[C@H](C(=O)N(c2ccc(S(F)(F)(F)(F)F)cc2)C(C(=O)N(C)CC(=O)NC2CC2)c2cccnc2)N(C#N)C1 (single isomer, unassigned) [Compound 1122] | < 2000 nM | – | < 2 µM | < 2000 nM | – |
| CC1(C)CCNc2cc(N(C(=O)[C@H]3C[C@@](C)(O)CN3C#N)C(C(=O)NC3CCC(F)(F)CC3)c3cncc(F)c3)ccc21 (single isomer, unassigned) [Compound 1127 Isomer 1] | < 2000 nM | < 2 µM | – | < 2000 nM | – |
| CC1(C)CCNc2cc(N(C(=O)[C@H]3C[C@@](C)(O)CN3C#N)C(C(=O)NC3CCC(F)(F)CC3)c3cncc(F)c3)ccc21 (single isomer, unassigned) [Compound 1127 Isomer 2] | < 2000 nM | – | < 2 µM | – | EC50 (229E Mpro; read-out: 229E Mpro EC50): < 2000 nM |
| CC1(C)CN(C#N)[C@@H](C(=O)N(c2ccc(C(C)(C)C)cc2)C(C(=O)NC2CCOCC2)c2cccnc2)CO1 (single isomer, unassigned) [Compound 1141] | < 2000 nM | – | 2 to 10 µM | < 2000 nM | – |
| N#CN1CC(=O)NCC1C(=O)N(c1ccc(S(F)(F)(F)(F)F)cc1)C(C(=O)NC1CCC(F)(F)CC1)c1cncc(F)c1 (single isomer, unassigned) [Compound 1160 Isomer 1, 1-cyano-N-[2-[(4,4-difluorocyclohexyl)amino]-1-(5-fluoro-3-pyridyl)-2-oxo-ethyl]-5-oxo-N-[4-(pentafluoro-λ6-sulfanyl)phenyl]piperazine-2-carboxamide] | < 2000 nM | – | < 2 µM | < 2000 nM | – |
| N#CN1CC(=O)NCC1C(=O)N(c1ccc(S(F)(F)(F)(F)F)cc1)C(C(=O)NC1CCC(F)(F)CC1)c1cncc(F)c1 (single isomer, unassigned) [Compound 1160 Isomer 2, 1-cyano-N-[2-[(4,4-difluorocyclohexyl)amino]-1-(5-fluoro-3-pyridyl)-2-oxo-ethyl]-5-oxo-N-[4-(pentafluoro-λ6-sulfanyl)phenyl]piperazine-2-carboxamide] | 2000 to 10000 nM | – | – | 2000 to 10000 nM | IC50 (HCov OC43; read-out: OC43 IC50 (uM) MEDIAN, median, listed as 1160 Isomer 2): 2 to 10 µM |
| N#CN1CC(=O)NCC1C(=O)N(c1ccc(S(F)(F)(F)(F)F)cc1)C(C(=O)NC1CCC(F)(F)CC1)c1cncc(F)c1 (single isomer, unassigned) [Compound 1160 Isomer 3, 1-cyano-N-[2-[(4,4-difluorocyclohexyl)amino]-1-(5-fluoro-3-pyridyl)-2-oxo-ethyl]-5-oxo-N-[4-(pentafluoro-λ6-sulfanyl)phenyl]piperazine-2-carboxamide] | 2000 to 10000 nM | – | – | < 2000 nM | IC50 (HCov OC43; read-out: OC43 IC50 (uM) MEDIAN, median, listed as 1160 Isomer 3): 2 to 10 µM |
| N#CN1CC(=O)NCC1C(=O)N(c1ccc(S(F)(F)(F)(F)F)cc1)C(C(=O)NC1CCC(F)(F)CC1)c1cncc(F)c1 (single isomer, unassigned) [Compound 1160 Isomer 4, 1-cyano-N-[2-[(4,4-difluorocyclohexyl)amino]-1-(5-fluoro-3-pyridyl)-2-oxo-ethyl]-5-oxo-N-[4-(pentafluoro-λ^6-sulfanyl)phenyl]piperazine-2-carboxamide] | 2000 to 10000 nM | – | – | < 2000 nM | IC50 (HCov OC43; read-out: OC43 IC50 (uM) MEDIAN, median, listed as 1160 Isomer 4): 2 to 10 µM |
| CN1CC(C(=O)N(c2ccc(S(F)(F)(F)(F)F)cc2)C(C(=O)NC2CCC(F)(F)CC2)c2cncc(F)c2)N(C#N)CC1=O (single isomer, unassigned) [Compound 1161 Isomer 1, 1-cyano-N-[2-[(4,4-difluorocyclohexyl)amino]-1-(5-fluoro-3-pyridyl)-2-oxo-ethyl]-4-methyl-5-oxo-N-[4-(pentafluoro-λ6-sulfanyl)phenyl]piperazine-2-carboxamide] | < 2000 nM | – | – | < 2000 nM | IC50 (HCov OC43; read-out: OC43 IC50 (uM) MEDIAN, median, listed as 1161 Isomer 1): < 2 µM |
| CN1CC(C(=O)N(c2ccc(S(F)(F)(F)(F)F)cc2)C(C(=O)NC2CCC(F)(F)CC2)c2cncc(F)c2)N(C#N)CC1=O (single isomer, unassigned) [Compound 1161 Isomer 2, 1-cyano-N-[2-[(4,4-difluorocyclohexyl)amino]-1-(5-fluoro-3-pyridyl)-2-oxo-ethyl]-4-methyl-5-oxo-N-[4-(pentafluoro-λ6-sulfanyl)phenyl]piperazine-2-carboxamide] | 2000 to 10000 nM | – | – | 2000 to 10000 nM | IC50 (HCov OC43; read-out: OC43 IC50 (uM) MEDIAN, median, listed as 1161 Isomer 2): 2 to 10 µM |
| CN1CC(C(=O)N(c2ccc(S(F)(F)(F)(F)F)cc2)C(C(=O)NC2CCC(F)(F)CC2)c2cncc(F)c2)N(C#N)CC1=O (single isomer, unassigned) [Compound 1161 Isomer 3, 1-cyano-N-[2-[(4,4-difluorocyclohexyl)amino]-1-(5-fluoro-3-pyridyl)-2-oxo-ethyl]-4-methyl-5-oxo-N-[4-(pentafluoro-λ6-sulfanyl)phenyl]piperazine-2-carboxamide] | 2000 to 10000 nM | – | – | 2000 to 10000 nM | IC50 (HCov OC43; read-out: OC43 IC50 (uM) MEDIAN, median, listed as 1161 Isomer 3): 10 to 30 µM |
| CN1CC(C(=O)N(c2ccc(S(F)(F)(F)(F)F)cc2)C(C(=O)NC2CCC(F)(F)CC2)c2cncc(F)c2)N(C#N)CC1=O (single isomer, unassigned) [Compound 1161 Isomer 4, 1-cyano-N-[2-[(4,4-difluorocyclohexyl)amino]-1-(5-fluoro-3-pyridyl)-2-oxo-ethyl]-4-methyl-5-oxo-N-[4-(pentafluoro-λ6-sulfanyl)phenyl]piperazine-2-carboxamide] | 2000 to 10000 nM | – | – | 2000 to 10000 nM | IC50 (HCov OC43; read-out: OC43 IC50 (uM) MEDIAN, median, listed as 1161 Isomer 4): 2 to 10 µM |
| CO[C@@H]1C[C@H](C(=O)N(c2ccc(S(F)(F)(F)(F)F)cc2)C(C(=O)N2CCCC3(COC3)C2)c2cccnc2)N(C#N)C1 (single isomer, unassigned) [Compound 1175] | 2000 to 10000 nM | < 2 µM | – | < 2000 nM | – |
| CO[C@@H]1C[C@H](C(=O)N(c2ccc(S(F)(F)(F)(F)F)cc2)C(C(=O)NC2C[C@@H](C)O[C@@H](C)C2)c2cccnc2)N(C#N)C1 (single isomer, unassigned) [Compound 1185] | < 2000 nM | – | < 2 µM | < 2000 nM | – |
| CO[C@@H]1C[C@H](C(=O)N(c2ccc(S(F)(F)(F)(F)F)cc2)C(C(=O)NC2CCC(F)(F)CC2)c2cnccc2C)N(C#N)C1 (single isomer, unassigned) [Compound 1199] | < 2000 nM | < 2 µM | – | < 2000 nM | – |
| CC(C(=O)NC1CCC(F)(F)CC1)(c1cccnc1)N(C(=O)[C@H]1[C@@H]2C[C@@H]2CN1C#N)c1ccc(S(F)(F)(F)(F)F)cc1 (single isomer, unassigned) [Compound 1251 Isomer 1] | 2000 to 10000 nM | – | 2 to 10 µM | – | EC50 (229E Mpro; read-out: 229E Mpro EC50): < 2000 nM |
| CC(C(=O)NC1CCC(F)(F)CC1)(c1cccnc1)N(C(=O)[C@H]1[C@@H]2C[C@@H]2CN1C#N)c1ccc(S(F)(F)(F)(F)F)cc1 (single isomer, unassigned) [Compound 1251 Isomer 2] | < 2000 nM | < 2 µM | – | < 2000 nM | – |
| CO[C@@H]1C[C@H](C(=O)N(c2ccc(C3CC3)cc2F)C(C(=O)NC2CCC(F)(F)CC2)c2cnccc2C(F)(F)F)N(C#N)C1 (single isomer, unassigned) [Compound 1309 Isomer 1] | < 2000 nM | – | < 2 µM | < 2000 nM | – |
| CO[C@@H]1C[C@H](C(=O)N(c2ccc(C3CC3)cc2F)C(C(=O)NC2CCC(F)(F)CC2)c2cnccc2C(F)(F)F)N(C#N)C1 (single isomer, unassigned) [Compound 1309 Isomer 2] | 2000 to 10000 nM | 2 to 10 µM | – | – | EC50 (229E Mpro; read-out: 229E Mpro EC50): < 2000 nM |
